From BindingDB's records for doi:10.1021/jm00108a040 (Eli Lilly, 1991)

Assays:
[1] = biological target: Gastrin/cholecystokinin type B receptor (Cavia porcellus); assay: Inhibition of [125I]-labeled CCK-8 sulfate binding to Cholecystokinin type B receptor in guinea pig brain membranes
[2] = biological target: Gastrin/cholecystokinin type B receptor (Cavia porcellus); assay: as above; remark: listed apart in the source

IC50 [1]: 330 nM
IC50 [2]: 330 nM
Structure (SMILES): CCc1cccc(-n2c(CCc3c[nH]c4ccc(Br)cc34)nc3ccccc3c2=O)c1
